Active and inactive are the calls of the source.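 The calls were made as follows: active = AC50 no more than ten times the top concentration tested, that is within one log above it; inconclusive = flat curve fit with activity between 30% and 70%, or invalid poor fit; inactive = AC50 beyond ten times the top tested dose.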
Tested on: S. cerevisiae Mot1-301 ts growth rescue, BacTiter-Glo ATP luminescence
Experiment: growth rescue of Mot1-301 ts yeast, confirmation, SUMOylation pathway inhibitor project, whole organism, S. cerevisiae, Mot1-301 ts mutant, luminescence, dose retest (AID 463204);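 also: growth at restrictive 38.5 degrees C of Mot1-301 OY566 strain; actives raise luminescence by restoring growth of the ts mutant at high temperature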

| Structure (SMILES) | AC50 |
| --- | --- |
| O=[N+]([O-])c1c(NCCCO)cc(Sc2nc3ccccc3s2)c2nonc12 | 40 µM |
| Cc1c(C(=O)N2CCCC2)c(S(=O)(=O)Nc2cccc(Br)c2)c(C)n1C | > 42 µM (inactive) |
| COc1ccc(OC)c2c(N)c(C#N)c(C(F)(F)C(F)(F)F)nc12 | > 42 µM (inactive) |
| COc1ccccc1NC(=O)CN(c1ccc(C)cc1)S(=O)(=O)c1c(C)n[nH]c1C | > 42 µM (inactive) |
| Cc1ccccc1-n1ncc2c([N+](=O)[O-])cc([N+](=O)[O-])cc21 | 5.35 µM |
| CN(C)c1oc(-c2ccccc2Cl)nc1S(=O)(=O)c1ccccc1 | > 42 µM (inactive) |
| Cc1cc([N+](=O)[O-])nn1CC(=O)NNC(=S)Nc1ccc([N+](=O)[O-])cc1 | > 42 µM (inactive) |
| Cc1ccc(C)c(OCCCC(=O)N2CCOCC2)c1 | > 42 µM (inactive) |
| Cc1ccc(S(=O)(=O)N2c3ccc(S(N)(=O)=O)cc3CC2C)cc1 (stereo not drawn) | > 42 µM (inactive) |
| COc1ccc(-c2csc(NC(=O)CS(=O)(=O)c3ccc(F)cc3)n2)cc1OC | > 42 µM (inactive) |
| CCCCC(O)(CCCC)C(=O)NN(C(=O)OC)c1ccc(C)cc1 | > 42 µM (inactive) |
| COc1ccc(C(=O)OCC(=O)c2ccc(C)c(S(=O)(=O)N3CCOCC3)c2)cc1OC | > 42 µM (inactive) |
| N#Cc1c(Cn2cncn2)nc(=O)n(-c2ccc(Cl)cc2)c1N | > 42 µM (inactive) |
| CC(C)NC(=O)NC(=O)COC(=O)CCCSc1nc2ccccc2s1 | > 42 µM (inactive) |
| COCC(C)n1c(SCC(=O)NNC(=O)c2ccccc2)nc2ccccc2c1=O (stereo not drawn) | > 42 µM (inactive) |
| COc1ccc(N2C(=O)CC(NCc3cccs3)C2=O)cc1 (stereo not drawn) | > 42 µM (inactive) |
| Nc1ccnc(=O)[nH]1 | > 42 µM (inactive) |
| Cc1cc(C)nc(-n2nc(C)cc2NC(=O)CNCc2ccccc2)n1 | > 42 µM (inactive) |
| CC1(C)Cc2c(c(N3CCCC3)nc3sc4c(N5CCN(CCO)CC5)ncnc4c23)CO1 | > 42 µM (inactive) |
| CN(CC(=O)N1CCc2[nH]c3ccc(F)cc3c2C1)CC1OCCO1 | > 42 µM (inactive) |
| CCOC(=O)CN1NC2(CCC(C(C)(C)C)CC2)NC1=S (stereo not drawn) | > 42 µM (inactive) |
| O=C(N/N=C/C(Br)=C/c1ccccc1)c1n[nH]c2c1CCC2 | 6.68 µM |
| CCOC(=O)c1cc2c(ccn2-c2ccc(F)cc2)n1CC(=O)N1CCN(C(=O)c2ccco2)CC1 | > 42 µM (inactive) |
| COc1cc(CN2CCNC(=O)C2CC(=O)NCCc2ncccc2C)cc(OC)c1 (stereo not drawn) | > 42 µM (inactive) |
| Cn1c(CN2CCOCC2)nnc1SCC(=O)Nc1cc(Cl)ccc1Cl | > 42 µM (inactive) |

| Structure (SMILES) | AC50 |
| --- | --- |
| CCC(=O)Nc1ccc(Br)c(Cl)c1 | > 42 µM (inactive) |
| Cc1ccc2c(c1)N(CC(=O)NCCCN1CCN(C)CC1)C(=O)CO2 | > 42 µM (inactive) |
| O=C(Nc1cccc(O)c1)C(Cc1ccccc1)N1C(=O)c2cccc3cccc(c23)C1=O (stereo not drawn) | > 42 µM (inactive) |
| CCOC(=O)c1ccc(NC(=O)CC2Sc3ncnn3C2=O)cc1 (stereo not drawn) | 6.96 µM |
| COc1ccc(CN2CCN(C(=O)c3cc(-c4cccnc4)nc4ccc(Cl)cc34)CC2)c(OC)c1OC | > 42 µM (inactive) |
| CC1(C)C(C=C(Cl)Cl)C1C(=O)OCc1cccc(Oc2ccccc2)c1 (stereo not drawn) | > 42 µM (inactive) |
| Cc1c(C(=O)OCC(=O)Nc2ccc(S(N)(=O)=O)cc2)oc2c1ccc1ccccc12 | > 42 µM (inactive) |
| COc1ccccc1N1CCN(CCN2C(=O)C3CCCCN3C2=O)CC1 (stereo not drawn) | > 42 µM (inactive) |
| CCCCCC(=O)Nc1nnn(CCC)n1 | > 42 µM (inactive) |
| CCC(CC)C(=O)N1CCCC(c2nc(-c3cccs3)no2)C1 (stereo not drawn) | > 42 µM (inactive) |
| O=C(NCc1cccnc1)C1CCN(S(=O)(=O)c2cccnc2)CC1 | > 42 µM (inactive) |
| CCC(CC)C(=O)Nc1ccc(S(=O)(=O)Nc2nccs2)cc1 | > 42 µM (inactive) |
| O=C(COc1ccc(F)cc1Cl)N(Cc1nnc(-c2ccccc2Cl)o1)C1CC1 | > 42 µM (inactive) |
| CCOc1ncccc1-c1nc(-c2cccs2)no1 | > 42 µM (inactive) |
| O=C(CCNC(=O)c1ccccc1)Nc1cccnc1 | > 42 µM (inactive) |
| Cc1ccc2nc(N/N=C/c3ccccc3F)nc(-c3ccccc3)c2c1 | > 42 µM (inactive) |
| O=c1cc(C(F)(F)F)c2sc(N3CCCCC3)nc2[nH]1 | > 42 µM (inactive) |
| Fc1cccc(Cl)c1CSc1nnc(CN2CCOCC2)n1-c1ccccc1 | > 42 µM (inactive) |
| Cc1ccc(CC(=O)O/N=C(\N)c2cccc([N+](=O)[O-])c2)cc1 | > 42 µM (inactive) |
| Cc1ccccc1-n1c(-c2cccnc2)n[nH]c1=S | > 42 µM (inactive) |
| O=C1OCc2cc(NS(=O)(=O)c3cccs3)ccc21 | > 42 µM (inactive) |
| N=c1ncn(CC(O)CO)c2nc(N3CCOCC3)[nH]c12 (stereo not drawn) | > 42 µM (inactive) |
| COc1ccccc1NS(=O)(=O)c1cc(Cl)ccc1OC | > 42 µM (inactive) |
| O=C1CN(C(=O)COC(=O)CCNS(=O)(=O)c2ccc(Cl)cc2)c2ccccc2N1 | > 42 µM (inactive) |
| CCOc1ccc(CCN2CN(C3CCCCC3)CNC2=S)cc1OCC | > 42 µM (inactive) |

| Structure (SMILES) | AC50 |
| --- | --- |
| O=c1[nH]c(=O)n(C2CCCO2)cc1Br (stereo not drawn) | > 42 µM (inactive) |
| CCc1nnc(NC(=O)CSc2nc3c(cc2C#N)CCCC3)s1 | > 42 µM (inactive) |
| CC1CN(Cc2ccccc2)c2nc3c(c(=O)[nH]c(=O)n3C)n2C1 (stereo not drawn) | > 42 µM (inactive) |
| COc1ccc(-c2cc(CC3(C(=O)O)CCN(C(=O)OC(C)(C)C)CC3)on2)c(OC)c1 | > 42 µM (inactive) |
| O=C(CSc1nnc(CNC(=O)c2ccccc2)o1)NCc1ccco1 | > 42 µM (inactive) |
| O=c1c2ccccc2nc(SCc2nnc(-c3ccccc3)o2)n1-c1ccc(F)cc1F | > 42 µM (inactive) |
| Cc1c(C(=O)NC(C)C)oc2c1-c1[nH]ncc1CC2 | > 42 µM (inactive) |
| Cn1c(=O)[nH]c(=O)c2c1nc(Sc1ccccc1)n2CCc1ccccc1 | > 42 µM (inactive) |
| O=C(COC(=O)c1cc([N+](=O)[O-])ccc1N1CCOCC1)Nc1cccc(F)c1 | > 42 µM (inactive) |
| CCC1CCCCN1CCCNC(=O)C1CCC(CNS(=O)(=O)c2c(C)cc(C)cc2C)CC1 (stereo not drawn) | > 42 µM (inactive) |
| Cc1ccc(-n2c(C)cc(/C=N/NC(=O)c3ccncc3)c2C)cc1C | > 42 µM (inactive) |
| COc1ccc(-c2nc(NC(=O)CCNC(=O)c3ccco3)sc2C)cc1 | > 42 µM (inactive) |
| CCOc1ccccc1Nc1nnc(SCc2nnc(-c3cc(OC)c(OC)c(OC)c3)o2)s1 | > 42 µM (inactive) |
| Clc1cnc(Oc2ccc(Oc3ncc(Cl)cc3Cl)cc2)c(Cl)c1 | > 42 µM (inactive) |
| O=C(NC1CCCCC1)c1ccc2c(=O)n(CC3CCCO3)c(=O)[nH]c2c1 (stereo not drawn) | > 42 µM (inactive) |
| COc1ccc(C(=O)CSc2nnc3ccc(-c4ccccn4)nn23)cc1 | > 42 µM (inactive) |
| COc1ccc(C(=O)N/C(=C\c2cc(OC)c(OC)cc2[N+](=O)[O-])C(=O)NCCO)cc1 | > 42 µM (inactive) |
| CC(C)c1ccc(NC(=O)COc2nnc(-c3cccs3)c(-c3cccs3)n2)cc1 | > 42 µM (inactive) |
| O=C(c1cnn2c(C(F)(F)F)cc(-c3ccco3)nc12)N1CCCc2ccccc21 | > 42 µM (inactive) |
| CCOC(=O)c1[nH]c2ccc(Br)cc2c1NC(=O)CCN1CCOCC1 | > 42 µM (inactive) |
| Cc1cccc(C(=O)NCC(=O)N2CCN(c3ccc(Cl)cc3)CC2)c1 | > 42 µM (inactive) |
| CNC(=O)COC(=O)c1cc(-c2ccco2)nc2ccccc12 | > 42 µM (inactive) |
| COc1ccc(-c2c(C)nn3c(C)cc(C)nc23)cc1 | > 42 µM (inactive) |
| CCC(c1nnnn1C1CCCC1)N1CCN(c2cccc(OC)c2)CC1 (stereo not drawn) | > 21 µM (inactive) |
| CCOc1ccc(N(C(C)C(=O)NC(C)CC)S(C)(=O)=O)cc1 (stereo not drawn) | > 42 µM (inactive) |

| Structure (SMILES) | AC50 |
| --- | --- |
| Cc1nc2c3ccccc3nc(NNC(=O)CCC(=O)N3CCCC(C)C3)n2n1 (stereo not drawn) | > 42 µM (inactive) |
| CC1CCCC(C)N1CCCNC(=O)c1csc2c1CCCCC2 (stereo not drawn) | > 42 µM (inactive) |
| O=C(c1ccc(CS(=O)(=O)c2ccccc2)o1)N1CCOCC1 | > 42 µM (inactive) |
| CN(C(=O)c1ccc(-c2nn(C)c(=O)c3ccccc23)cc1)C1CCCCC1 | > 42 µM (inactive) |
| O=c1/c(=C/c2ccco2)sc2nc(-c3ccccc3Br)nn12 | 5.74 µM |
| Cc1nc(CCNC(=O)c2ccccc2)cs1 | > 42 µM (inactive) |
| CC1CCCC(N2C(=O)NC(NC(=O)c3ccco3)(C(F)(F)F)C2=O)C1C (stereo not drawn) | > 42 µM (inactive) |
| Cc1c(C(=O)N2CCOCC2)c(S(=O)(=O)Nc2cccc(Br)c2)c(C)n1C | > 42 µM (inactive) |
| CCCCOc1ccc(C(O)C(CN2CCOCC2)c2ccccc2)cc1 (stereo not drawn) | > 42 µM (inactive) |
| O=C(CCCC(=O)N(CC(=O)NC1CCCC1)c1cccc(F)c1)Nc1ccccn1 | > 42 µM (inactive) |
| Cc1ccc2nc(NC(=O)C3CCN(S(=O)(=O)c4cccnc4)CC3)sc2c1 | > 42 µM (inactive) |
| Cc1nnc(SCC(=O)NCc2ccccc2Cl)[nH]c1=O | > 42 µM (inactive) |
| CCC(C(=O)Nc1cccnc1)c1ccccc1 (stereo not drawn) | > 42 µM (inactive) |
| Cc1cc(-c2ccc(Cl)cc2Cl)c(C#N)c(=O)[nH]1 | > 42 µM (inactive) |
| O=C1CCN(Cc2ccccc2)CCN1CCOc1ccccc1 | > 42 µM (inactive) |
| CCOCCCNC(=O)C(c1ccc(OC)cc1)N(Cc1ccc2c(c1)OCO2)C(=O)CNC(C)=O (stereo not drawn) | > 42 µM (inactive) |
| CCOc1ccc(S(=O)(=O)N2CCC(C(=O)N3CCN(c4ccccc4)CC3)CC2)cc1 | > 42 µM (inactive) |
| COc1cccc(C2CC(c3cccc(NS(C)(=O)=O)c3)=NN2C(=O)c2ccccc2)c1OC (stereo not drawn) | > 42 µM (inactive) |
| CCN1CCN(C(=O)c2ccc3nc(-c4ccccc4)c(-c4ccccc4)nc3c2)CC1 | > 42 µM (inactive) |
| CC(=O)N1CCN(CC(O)COc2ccc(OCc3ccccc3)cc2)CC1 (stereo not drawn) | > 42 µM (inactive) |
| CN(C(=O)CSc1nnc(-c2cccc(F)c2)n1N)C1CCS(=O)(=O)C1 (stereo not drawn) | > 42 µM (inactive) |
| CC(=O)c1ccc(N2CCN(CC(=O)Nc3cc(C)on3)CC2)cc1 | > 42 µM (inactive) |
| O=C(O)CCc1ccc(-c2ccccc2)n1NC(=O)c1cccs1 | > 42 µM (inactive) |

— PubChem BioAssay AID463204 (Broad Institute, 2010)
